Measured values: publication PMC12630350, “Direct coupling of lactate oxidation with butyryl-CoA formation via a canonical electron transfer flavoprotein in Fusobacterium nucleatum” (The Journal of Biological Chemistry, 2025)

Target: T1, ETFFN (EtfAB, FN1533-FN1534) (Fusobacterium polymorphum, UniProt A0A1Z3CIN2+A0A1Z3CJK5)
T1 construct: gene CBG50_09400; heterodimer, His6 tag on N-terminus of EtfB; EtfA 34,980 Da, tagged EtfB 30,560 Da; E. coli BL21(DE3)
T1 sequence (A0A1Z3CIN2 1-322): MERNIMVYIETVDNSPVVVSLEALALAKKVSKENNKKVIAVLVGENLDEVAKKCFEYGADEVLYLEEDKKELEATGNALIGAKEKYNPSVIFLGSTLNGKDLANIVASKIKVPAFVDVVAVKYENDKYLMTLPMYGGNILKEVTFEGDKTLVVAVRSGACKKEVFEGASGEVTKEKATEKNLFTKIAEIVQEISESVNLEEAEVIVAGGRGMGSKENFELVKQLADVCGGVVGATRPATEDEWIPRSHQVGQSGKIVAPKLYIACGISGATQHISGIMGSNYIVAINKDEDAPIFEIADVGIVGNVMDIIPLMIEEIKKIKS
T1 sequence (A0A1Z3CJK5 1-259): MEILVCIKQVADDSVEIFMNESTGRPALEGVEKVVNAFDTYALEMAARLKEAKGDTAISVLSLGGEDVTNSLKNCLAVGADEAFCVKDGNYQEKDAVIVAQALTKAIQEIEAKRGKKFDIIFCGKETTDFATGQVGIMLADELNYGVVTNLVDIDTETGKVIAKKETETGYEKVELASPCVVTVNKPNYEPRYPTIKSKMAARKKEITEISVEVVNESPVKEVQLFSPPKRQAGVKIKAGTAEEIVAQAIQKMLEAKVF
Assay: UV-visible spectrum; FAD released by heat denaturation
Type: binding
Conditions: copurified; FAD in alpha-subunit; FAD to protein ratio determined

Cc1cc2nc3c(=O)[nH]c(=O)nc-3n(C[C@H](O)[C@H](O)[C@H](O)COP(=O)(O)OP(=O)(O)OC[C@H]3O[C@@H](n4cnc5c(N)ncnc54)[C@H](O)[C@@H]3O)c2cc1C [FAD]
UV-visible spectrum; FAD released by heat denaturation: diagnostic of the FAD cofactor
